Data: BindingDB's records for doi:10.1021/acs.jmedchem.9b00846 (2019)

Key:
[1] = Binding affinity to cereblon in human MDA-MB-231 cells assessed as cell growth inhibition measured after 4 days
[2] = Binding affinity to cereblon in human MDA-MB-468 cells assessed as cell growth inhibition measured after 4 days
[3] = Binding affinity to cereblon in human RV4:11/IRMI-2 cells harboring p53 hotspot mutation Y236H/R249G assessed as cell growth inhibition measured after 4 days
[4] = Binding affinity to cereblon in human RV4:11 cells expressing wild type p53 assessed as cell growth inhibition measured after 4 days
[5] = Binding affinity to cereblon in human MDA-MB-468 cells assessed as reduction in cell growth inhibition measured after 4 days in presence of 10 uM lenalidomide
[6] = Binding affinity to cereblon in human MDA-MB-468 cells assessed as reduction in cell growth inhibition measured after 4 days in presence of 30 uM lenalidomide
[7] = Binding affinity to cereblon in human MDA-MB-468 cells assessed as reduction in cell growth inhibition measured after 4 days in presence of 100 uM lenalidomide
[8] = Binding affinity to cereblon in human MDA-MB-231 cells assessed as reduction in cell growth inhibition measured after 4 days in presence of 10 uM of lenalidomide
[9] = Binding affinity to cereblon in human MDA-MB-231 cells assessed as reduction in cell growth inhibition measured after 4 days in presence of 30 uM of lenalidomide
[10] = Binding affinity to cereblon in human MDA-MB-231 cells assessed as reduction in cell growth inhibition measured after 4 days in presence of 100 uM of lenalidomide
[11] = Binding affinity to cereblon in human RV4:11 cells expressing wild type p53 assessed as reduction in cell growth inhibition measured after 4 days in presence of 10 uM lenalidomide
[12] = Binding affinity to cereblon in human RV4:11 cells expressing wild type p53 assessed as reduction in cell growth inhibition measured after 4 days in presence of 30 uM lenalidomide
[13] = Binding affinity to cereblon in human RV4:11 cells expressing wild type p53 assessed as reduction in cell growth inhibition measured after 4 days in presence of 100 uM lenalidomide
[14] = Binding affinity to cereblon in human RV4:11/IRMI-2 cells harboring p53 hotspot mutation Y236H/R249G assessed as reduction in cell growth inhibition measured after 4 days in presence of 10 uM lenalidomide
[15] = Binding affinity to cereblon in human RV4:11/IRMI-2 cells harboring p53 hotspot mutation Y236H/R249G assessed as reduction in cell growth inhibition measured after 4 days in presence of 30 uM lenalidomide
[16] = Binding affinity to cereblon in human RV4:11/IRMI-2 cells harboring p53 hotspot mutation Y236H/R249G assessed as reduction in cell growth inhibition measured after 4 days in presence of 100 uM lenalidomide

| IC50 [1] [nM] | IC50 [2] [nM] | IC50 [3] [nM] | IC50 [4] [nM] | IC50 [5] [nM] | IC50 [6] [nM] | IC50 [7] [nM] | IC50 [8] [nM] | IC50 [9] [nM] | IC50 [10] [nM] | IC50 [11] [nM] | IC50 [12] [nM] | IC50 [13] [nM] | IC50 [14] [nM] | IC50 [15] [nM] | IC50 [16] [nM] | SMILES |
| --- | --- | --- | --- | --- | --- | --- | --- | --- | --- | --- | --- | --- | --- | --- | --- | --- |
| > 10000 | > 10000 | > 10000 | – | – | – | – | – | – | – | – | – | – | – | – | – | CNC(=O)[C@@H]1NC2(CCCCC2)[C@@]2(C(=O)Nc3cc(Cl)ccc32)[C@H]1c1cccc(Cl)c1F [US8629141, 21] |
| > 10000 | > 10000 | > 10000 | 5.5 | – | – | – | – | – | – | – | – | – | – | – | – | O=C1CCC(N2Cc3c(CCCCCNC(=O)c4ccc(NC(=O)[C@@H]5NC6(CCCCC6)[C@@]6(C(=O)Nc7cc(Cl)ccc76)[C@H]5c5cccc(Cl)c5F)cc4)cccc3C2=O)C(=O)N1 (stereo partly specified) |
| – | – | 3.1 | 2 | 419 | 964 | 2070 | 623 | 1370 | 2140 | 96 | 211 | 496 | 168 | 400 | 982 | O=C1CCC(N2Cc3c(CCCCCNC(=O)[C@@H]4NC5(CCCCC5)[C@@]5(C(=O)Nc6cc(Cl)ccc65)[C@H]4c4cccc(Cl)c4F)cccc3C2=O)C(=O)N1 (stereo partly specified) |
